Experimental data as given in ChEMBL document CHEMBL1201862, “PubChem BioAssay data set” (2004).
Blank lines part the entries; values can stand above or below the compound they belong to. Calls of active or inactive are those of the source.

What was measured:
[1] = viability of uninfected HEp-2 cells – cell-based, HTS, cytotoxicity control for RSV inhibitor project, dose response (AID 2410); assay type: functional; conditions: human respiratory syncytial virus
[2] = molecular target: Disintegrin and metalloproteinase domain-containing protein 17 (Homo sapiens, UniProt P78536); assay: exosite inhibitors of ADAM17, dose response, biochemical (AID 743260)
[3] = inhibition of ADAM10 peptide cleavage – biochemical, FRET peptide substrate, recombinant human ADAM10, selectivity assay for ADAM17 exosite inhibitor project, dose response (AID 743259);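 note: ADAM10 enzyme cleaving a FRET peptide substrate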
Prothrombin = Prothrombin (Homo sapiens, UniProt P00734); assay: Thrombin 1536 HTS Dose Response Confirmation. [Related pubchem assays: 1046 (Thrombin 1536 HTS; hits were confirmed in this assay)]; assay type: functional
[4] = molecular target: T1, Heat shock factor protein 1 (Mus musculus, UniProt P38532); assay: decrease of HSF1-responsive luciferase luminescence – cell-based, NIH3T3, dose retest, confirmation (AID 2382); assay type: functional;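 note: NIH3T3 fibroblasts with HSF1-driven luciferase reporter stressed by proteasome inhibitor MG132; luminescence from HSF1-driven luciferase expression after 8 hours of MG132 stress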
T1 sequence (P38532 whole entry): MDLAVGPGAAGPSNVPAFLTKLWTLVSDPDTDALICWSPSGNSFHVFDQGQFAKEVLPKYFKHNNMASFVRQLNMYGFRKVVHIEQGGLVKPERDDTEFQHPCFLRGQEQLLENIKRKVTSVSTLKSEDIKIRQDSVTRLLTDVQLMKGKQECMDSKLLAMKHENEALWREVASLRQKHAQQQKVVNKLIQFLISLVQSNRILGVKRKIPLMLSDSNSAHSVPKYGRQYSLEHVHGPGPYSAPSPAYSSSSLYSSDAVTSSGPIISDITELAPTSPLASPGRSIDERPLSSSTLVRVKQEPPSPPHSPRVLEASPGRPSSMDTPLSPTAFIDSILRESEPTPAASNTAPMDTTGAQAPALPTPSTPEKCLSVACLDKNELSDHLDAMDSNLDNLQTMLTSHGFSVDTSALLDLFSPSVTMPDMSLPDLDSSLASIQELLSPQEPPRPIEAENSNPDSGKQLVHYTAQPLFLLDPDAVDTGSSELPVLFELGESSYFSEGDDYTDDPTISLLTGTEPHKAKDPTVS

H9c2 = assay: cells; assay type: functional, cell-based; conditions: Rattus norvegicus, H9c2, Myocardium;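 note: confirmatory concentration-response retest of ultra-high-throughput screening hits for modulation of myocardial damage; cell death induced by hydrogen peroxide oxidative stress; compound pretreatment for 60 min then peroxide exposure for 2 h; potency is for protecting the cells against peroxide damage rather than for killing them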
[5] = A549 cell cytotoxicity, dose response, cytotoxicity control, plate reader, cherry-pick, antagonist series (AID 743412); assay type: functional, cell-based
[6] = blockers of bursicon-stimulated LGR2 cAMP reporter – cell-based, HEK293, CRE-luciferase reporter, cherry pick, set 2, dose response (AID 743343); assay type: functional;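 note: transfected cells were stimulated with diluted bursicon conditioned medium after compound addition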
[7] = blockade of melanocortin 4 receptor signaling – cell-based, plate reader, cherry pick, counter-screen for LGR2 antagonist project, dose response (AID 743444); assay type: functional;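 note: transfected HEK 293 cells stimulated with alpha-MSH peptide; potency of inhibitors of the alpha-MSH evoked signal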
[8] = molecular target: T2, Methionyl-tRNA synthetase, putative (Trypanosoma brucei brucei, UniProt Q38C91); assay type: functional, Trypanosoma brucei brucei strain 927/4 GUTat10.1
T2 sequence (Q38C91 whole entry): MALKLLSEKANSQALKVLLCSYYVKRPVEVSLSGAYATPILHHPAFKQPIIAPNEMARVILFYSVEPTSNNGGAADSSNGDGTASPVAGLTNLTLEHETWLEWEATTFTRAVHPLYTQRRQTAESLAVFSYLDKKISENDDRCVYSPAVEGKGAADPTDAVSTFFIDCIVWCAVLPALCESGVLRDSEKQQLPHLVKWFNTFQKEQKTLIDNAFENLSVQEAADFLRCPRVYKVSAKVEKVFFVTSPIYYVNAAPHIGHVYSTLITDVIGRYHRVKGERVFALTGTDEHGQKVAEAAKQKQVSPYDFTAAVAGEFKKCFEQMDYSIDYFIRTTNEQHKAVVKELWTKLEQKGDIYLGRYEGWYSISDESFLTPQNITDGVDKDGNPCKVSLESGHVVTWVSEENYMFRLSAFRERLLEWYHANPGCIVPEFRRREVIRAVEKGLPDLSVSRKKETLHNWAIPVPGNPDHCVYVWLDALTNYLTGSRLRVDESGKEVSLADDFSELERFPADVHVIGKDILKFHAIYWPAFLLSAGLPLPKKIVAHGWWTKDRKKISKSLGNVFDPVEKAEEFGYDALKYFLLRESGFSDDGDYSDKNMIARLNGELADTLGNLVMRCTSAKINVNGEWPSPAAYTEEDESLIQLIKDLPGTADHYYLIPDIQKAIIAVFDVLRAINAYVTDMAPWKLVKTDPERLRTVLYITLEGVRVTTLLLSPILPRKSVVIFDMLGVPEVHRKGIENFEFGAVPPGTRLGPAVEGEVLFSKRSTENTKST

[9] = Counterscreen for inhibitors of Trypanosoma brucei methionyl tRNA synthetase (MetRS): Luminescence-based cell-based high throughput dose response assay to identify compounds that are cytotoxic to Jurkat human T lymphocyte cells.; assay type: functional
[10] = molecular target: T2, Methionyl-tRNA synthetase, putative; assay type: functional, Trypanosoma brucei brucei strain 927/4 GUTat10.1; remark: listed apart in the source

Chain of Disintegrin and metalloproteinase domain-containing protein 17 (P78536 whole entry, the tested form may be a part): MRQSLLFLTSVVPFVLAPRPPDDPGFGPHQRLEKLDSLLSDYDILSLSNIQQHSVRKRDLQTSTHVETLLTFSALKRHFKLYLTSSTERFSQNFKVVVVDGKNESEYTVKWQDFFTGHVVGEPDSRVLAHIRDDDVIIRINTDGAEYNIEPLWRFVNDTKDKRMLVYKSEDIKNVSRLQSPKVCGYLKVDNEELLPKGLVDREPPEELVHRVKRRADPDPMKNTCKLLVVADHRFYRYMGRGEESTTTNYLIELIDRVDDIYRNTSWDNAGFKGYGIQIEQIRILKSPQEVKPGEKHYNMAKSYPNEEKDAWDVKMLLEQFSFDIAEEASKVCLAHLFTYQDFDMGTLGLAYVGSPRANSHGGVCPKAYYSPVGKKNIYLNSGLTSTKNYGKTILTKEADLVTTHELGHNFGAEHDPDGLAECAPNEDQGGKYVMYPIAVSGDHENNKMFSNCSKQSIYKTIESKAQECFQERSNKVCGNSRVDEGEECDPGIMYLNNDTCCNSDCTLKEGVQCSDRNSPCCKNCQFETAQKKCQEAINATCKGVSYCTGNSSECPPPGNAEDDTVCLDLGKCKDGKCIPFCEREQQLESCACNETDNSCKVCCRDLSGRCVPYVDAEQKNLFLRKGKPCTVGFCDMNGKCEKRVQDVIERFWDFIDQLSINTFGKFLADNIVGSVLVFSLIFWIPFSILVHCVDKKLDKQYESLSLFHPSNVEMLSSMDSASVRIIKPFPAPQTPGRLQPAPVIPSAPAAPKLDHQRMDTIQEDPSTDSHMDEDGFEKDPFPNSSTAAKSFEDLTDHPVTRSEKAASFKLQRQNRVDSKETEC

SMILES: COC(=O)c1ccc(Cn2c(CN3CCOCC3)nc3ccccc3c2=O)o1
IC50 (cells): 17.4 µM (active)

SMILES: Cc1ccc(S(=O)(=O)N2CCN(CCO)CC2)cc1-c1nnc2c3ccccc3c(C)nn12
IC50 (cells): > 50 µM (active)

SMILES: COc1ccccc1-n1c(C)cc(/C=C2\C(=N)N3N=C(CC(=O)N4CCOCC4)SC3=NC2=O)c1C
CC50 [1]: 38.3 µM (active) | IC50 (cells): 24.1 µM (active)

IC50 [2]: > 69.5 µM (inactive)
SMILES: O=C(COC(=O)c1cccc(NS(=O)(=O)/C=C/c2ccccc2)c1)Nc1ccccc1OC(F)F
IC50 [3]: 36 µM (inactive)

IC50 (Prothrombin): > 50 µM (not active)
SMILES: Cc1nn(C)cc1CN1CCC(CO)(CCOc2ccccc2)CC1

IC50 [2]: > 69.5 µM (inactive)
SMILES: Cc1csc(-c2cnn(-c3ccccc3)c2NC(=O)c2ccc(C(F)(F)F)cc2)n1
IC50 [3]: 24.7 µM (inactive)

EC50 [4]: > 195 µM (not active) | IC50 (Prothrombin): > 50 µM (not active)
SMILES: O=C(COc1ccccc1C(=O)O)Nc1ccc(SC(F)F)cc1

SMILES: Cc1ccc(C)c(S(=O)(=O)N(C(=O)c2ccncc2)c2ccc(OC(=O)c3ccncc3)cc2)c1
IC50 (H9c2): > 79 µM (inactive) | AC50 [5]: > 52 µM (inactive) | AC50 [6]: 4.05 µM (active) | AC50 [7]: 1.9 µM (active)

SMILES: Cc1cc(C)c2c(-n3cccc3)c(C(=O)NNS(=O)(=O)c3ccc(Cl)cc3)sc2n1
CC50 [1]: 37.1 µM (active) | IC50 (cells): 40.2 µM (active)

IC50 (Prothrombin): > 50 µM (not active)
SMILES: CC(C)Oc1ccc(N2CC(C(=O)NC3=NCCS3)CC2=O)cc1 (stereo unspecified)

SMILES: COC(=O)c1sc(-c2ccc(Cl)cc2)cc1NC(=O)CSCC(=O)O
IC50 [8]: 22.5 µM (inactive) | IC50 [9]: 83.3 µM (inactive) | IC50 [10]: 18.2 µM (inactive)
